What all share (assay): MIC, agar incorporation method
One assay relates to S. pneum 6303. Type of assay: cell-based, Streptococcus pneumoniae. As to conditions: S. pneum 6303; agar incorporation. The source says: (§1) The compounds of the invention display antibacterial activity when tested by the agar incorporation method. The following minimum inhibitory concentrations (μg/ml) were obtained for representative compounds of the invention which are given below in the following tables.
(§2) • 1) S.aureus ATCC 25923—Staphylococus aureus ATCC 25923 • 2) MRSA 15187—Methicillin Resistant Staphylococcus aureus • 3) Ent. faecalis ATCC 29212—Enterococcus faecalis ATCC 29212 • 4) Ent. faecium 6A—Enterococcus faecium 6A Van®, Cipro® • 5) Strep. pne. ATCC 6303—Streptococcus pneumoniae ATCC 6303 • 6) Strep. pyog. ATCC 19615—Streptococcus pyogenes • 7) S. epidermidis—Staphylococcus epidermidis ATCC 12228
(§3) Briefly, the compounds were dissolved in DMSO and doubling dilution of the compounds were incorporated into Meuller Hilton agar before solidification. Inoculum was prepared by suspending 4 to 5 colonies into 5 ml of normal saline solution and adjusting the turbidity to 0.5 Macfarland turbidity standard tables (1.5×10^8 CFU/ml), after appropriate dilutions, 10^4 CFU/spot was transfered into the surface of dried plate and incubated for 18 hours (24 hours for MRSN studies). The concentration showing no growth of the inoculated culture was recorded as the MIC. Appropriate ATCC standard strains were simultaneously tested and result recorded only when the MIC's against standard antibiotics were within the acceptable range.

A further assay has as its system S. pyogenes 19615. Type of assay: cell-based, Streptococcus pyogenes. The settings on record: S. pyogenes 19615; agar incorporation.
From the text: as §1, §2, §3

The test system of the next assay is MRSA 33. Type of assay: cell-based, Staphylococcus aureus. The settings on record: MRSA 33; agar incorporation. As for the experimental part: as §1, §3
For a further assay, the system named is E. faecalis 29212. Type of assay: cell-based, Enterococcus faecalis. As to conditions: E. faecalis 29212; agar incorporation.
From the text: as §1, §2, §3

For the next assay, the system named is VRE 6A. Type of assay: cell-based, Enterococcus faecium. The settings on record: VRE 6A; agar incorporation.
From the text: as §1, §2, §3

A further assay relates to MRSA 15187. Type of assay: cell-based, Staphylococcus aureus. As to conditions: MRSA 15187; agar incorporation.
From the text: as §1, §2, §3

In the next assay the test system is S. aureus 25923. Type of assay: cell-based, Staphylococcus aureus. The settings on record: S. aureus 25923; agar incorporation.
From the text: as §1, §2, §3

The subject of another assay is S. pneum AB 34. The assay is classed as cell-based, Streptococcus pneumoniae. As to conditions: S. pneum AB 34; agar incorporation. As to the method: as §1, §3
The subject of another assay is MRSA 562. The assay is classed as cell-based, Staphylococcus aureus. The settings on record: MRSA 562; agar incorporation; Table 1. As to the method: as §1, §3

Values after ≈ are worked out from the molar mass of the structure shown.

As for `CC(=O)NC[C@H]1CN(c2ccc(N3CCN(C(=O)c4ccco4)CC3)c(F)c2)C(=O)O1` [Compound No. 01, (S)-N-[[3-[3-Fluoro-4-[N-1-[4-(2-furoyl)piperazinyl]]-phenyl]-2-oxo-5-oxazolidinyl]methyl]acetamide], the MIC – broadly, the least concentration at which growth counts as inhibited – against S. pneum 6303 was found to be 2 µg/mL (≈ 4.65 µM); in the assay on S. pyogenes 19615, 1 µg/mL (≈ 2.32 µM); against MRSA 33, 4 µg/mL (≈ 9.29 µM); in the assay on E. faecalis 29212 it was 2 µg/mL (≈ 4.65 µM); against VRE 6A it was 2 µg/mL (≈ 4.65 µM); in the assay with MRSA 15187, 2 µg/mL (≈ 4.65 µM). Also, the MIC against S. aureus 25923 stood at 2 µg/mL (≈ 4.65 µM); against S. pneum AB 34, 1 µg/mL (≈ 2.32 µM).

Consider `CC(=O)NC[C@H]1CN(c2ccc(N3CCN(Cc4ccc(C=O)o4)CC3)c(F)c2)C(=O)O1` [Compound No. 02, (S)-N-[[3-[3-Fluoro-4-[N-1[4-{2-furyl(5-formyl)methyl}]piperazinyl]phenyl]-2-oxo-5-oxazolidinyl]methyl]acetamide], for which the minimal inhibitory concentration (MIC) in the assay with S. pneum 6303 is 4 µg/mL (≈ 9 µM); against S. pyogenes 19615, 8 µg/mL (≈ 18 µM); with MRSA 33, 2 µg/mL (≈ 4.5 µM); against MRSA 562, 1 µg/mL (≈ 2.25 µM); against E. faecalis 29212 it was 8 µg/mL (≈ 18 µM); in the assay with VRE 6A it was 8 µg/mL (≈ 18 µM). The MIC in the assay with MRSA 15187 was 2 µg/mL (≈ 4.5 µM); with S. aureus 25923, 1 µg/mL (≈ 2.25 µM); in the assay on S. pneum AB 34, 8 µg/mL (≈ 18 µM).

Consider `CC(=O)NC[C@H]1CN(c2ccc(N3CCN(C(=O)c4ccc(CCl)o4)CC3)c(F)c2)C(=O)O1` [Compound No. 05, (S)-N-[[3-Fluoro-4-[N-1[4-(5-chloromethyl-2-furoyl)piperazinyl]phenyl]-2-oxo-5-oxazolidinyl]methyl]acetamide], for which the MIC with S. pneum 6303 came to 4 µg/mL (≈ 8.35 µM); against S. pyogenes 19615 it was 4 µg/mL (≈ 8.35 µM); against MRSA 33 it was 4 µg/mL (≈ 8.35 µM); in the assay with E. faecalis 29212, 8 µg/mL (≈ 16.7 µM); in the assay with VRE 6A, 8 µg/mL (≈ 16.7 µM); against MRSA 15187, 4 µg/mL (≈ 8.35 µM). Also, the minimum inhibitory concentration (MIC) in the assay with S. aureus 25923 is 16 µg/mL (≈ 33.4 µM); in the assay with S. pneum AB 34, 4 µg/mL (≈ 8.35 µM).

With `CC(=O)NC[C@H]1CN(c2ccc(N3CCN(Cc4ccc(Cl)s4)CC3)c(F)c2)C(=O)O1` [Compound No. 10, (S)-N[[3-[3-Fluoro-4-[N-1[4-{2-thienyl(5-chloro)methyl}]-piperazinyl]phenyl]2-oxo-5-oxazolidinyl]methyl]acetamide], the MIC stood at 4 µg/mL (≈ 8.57 µM) against S. pneum 6303; 1 µg/mL (≈ 2.14 µM) with S. pyogenes 19615; 4 µg/mL (≈ 8.57 µM) in the assay with MRSA 33; 8 µg/mL (≈ 17.1 µM) against E. faecalis 29212; 4 µg/mL (≈ 8.57 µM) against VRE 6A; 4 µg/mL (≈ 8.57 µM) against MRSA 15187. Moreover, the MIC with S. aureus 25923 and in the assay on S. pneum AB 34 was 8 µg/mL (≈ 17.1 µM) each time.

As to `CC(=O)NC[C@H]1CN(c2ccc(N3CCN(Cc4ccc([N+](=O)[O-])o4)CC3)c(F)c2)C(=O)O1.O=C(O)CC(O)(CC(=O)O)C(=O)O` [Compound No. 17], the MIC in the assay on S. pneum 6303 stood at 2 µg/mL; in the assay on S. pyogenes 19615, 1 µg/mL; in the assay with MRSA 33 it was 2 µg/mL; with E. faecalis 29212 it was 2 µg/mL; in the assay with VRE 6A, 4 µg/mL; in the assay on MRSA 15187, 2 µg/mL. Besides, the MIC in the assay on S. aureus 25923 came out at 2 µg/mL; against S. pneum AB 34 it was 1 µg/mL.

Consider `CC(=O)NC[C@H]1CN(c2ccc(N3CCN(Cc4ccc([N+](=O)[O-])s4)CC3)c(F)c2)C(=O)O1` [Compound No. 23, (S)-N[[3-[3-Fluoro-4-[N-1[4-{2-thienyl(5-nitro)methyl}]piperazinyl]phenyl]2-oxo-5-oxazolidinyl]methyl]acetamide], for which the MIC is 8 µg/mL (≈ 16.8 µM) in the assay with S. pneum 6303; 1 µg/mL (≈ 2.09 µM) in the assay with S. pyogenes 19615; 8 µg/mL (≈ 16.8 µM) with MRSA 33; 8 µg/mL (≈ 16.8 µM) against E. faecalis 29212; 8 µg/mL (≈ 16.8 µM) against VRE 6A; 8 µg/mL (≈ 16.8 µM) against MRSA 15187. Besides, the MIC against S. aureus 25923 and against S. pneum AB 34 was 8 µg/mL (≈ 16.8 µM) throughout.

Take `CC(=O)NC[C@H]1CN(c2ccc(N3CC4C(C3)C4N(C)C(=O)c3ccoc3)c(F)c2)C(=O)O1` (stereo partly drawn) [Compound No. 32, (S)-N-[[3-[3-Fluoro[4-[3-(1α, 5α, 6α)-6-[N-(3-furoyl)-N-methyl]amino]-3-azabicyclo-[3.1.0]hexane]phenyl]-2-oxo-5-oxazolidinyl]methyl]acetamide]: the MIC in the assay on S. pneum 6303 came to 4 µg/mL (≈ 8.76 µM); against S. pyogenes 19615, 1 µg/mL (≈ 2.19 µM); in the assay on MRSA 33, 8 µg/mL (≈ 17.5 µM); against E. faecalis 29212, 8 µg/mL (≈ 17.5 µM); in the assay with VRE 6A it was 8 µg/mL (≈ 17.5 µM); in the assay with MRSA 15187, 8 µg/mL (≈ 17.5 µM). The minimum inhibitory concentration (MIC) with S. aureus 25923 was 8 µg/mL (≈ 17.5 µM); with S. pneum AB 34, 4 µg/mL (≈ 8.76 µM).

As to `CC(=O)NC[C@H]1CN(c2ccc(N3C[C@@H]4[C@H](C3)[C@H]4N(C)C(=O)c3ccc(Br)o3)c(F)c2)C(=O)O1` [Compound No. 33, (S)-N-[[3-[3-Fluoro[4-[3-(1α,5α,6α)-6-[N-(5-bromo-2-furoyl)-N-methyl]amino]-3-azabicyclo-[3.1.0]hexane]phenyl]-2-oxo-5-oxazolidinyl]methyl]acetamide], the MIC against S. pneum 6303 came out at 8 µg/mL (≈ 14.9 µM); against S. pyogenes 19615, 0.5 µg/mL (≈ 0.934 µM); in the assay on MRSA 33 it was 4 µg/mL (≈ 7.47 µM); with E. faecalis 29212, 4 µg/mL (≈ 7.47 µM); against VRE 6A, 4 µg/mL (≈ 7.47 µM); against MRSA 15187, 4 µg/mL (≈ 7.47 µM). Also, the MIC against S. aureus 25923 and in the assay on S. pneum AB 34 was 4 µg/mL (≈ 7.47 µM) each time.

Turning to `CC(=O)NC[C@H]1CN(c2ccc(N3CCC(N(C)Cc4ccc([N+](=O)[O-])s4)CC3)c(F)c2)C(=O)O1` [Compound No. 51, (S)-N-[[3-[4-[4-(N-methyl-N-2-thienyl(5-nitro)methyl)-aminopiperidine-1-yl]-3-fluorophenyl]-2oxo-oxazolidin-5-yl]methyl]acetamide], the minimal inhibitory concentration (MIC) in the assay with S. pyogenes 19615 was determined as 0.5 µg/mL (≈ 0.989 µM); in the assay with MRSA 33, 1 µg/mL (≈ 1.98 µM); against MRSA 562, 1 µg/mL (≈ 1.98 µM); with E. faecalis 29212, 4 µg/mL (≈ 7.91 µM); in the assay with VRE 6A it was 4 µg/mL (≈ 7.91 µM); against MRSA 15187, 1 µg/mL (≈ 1.98 µM). Moreover, the MIC in the assay on S. aureus 25923 and in the assay on S. pneum AB 34 was 2 µg/mL (≈ 3.96 µM) each time.

On to `CC(=O)NC[C@H]1CN(c2ccc(N3CCN(Cc4ccc(C=NO)o4)CC3)c(F)c2)C(=O)O1` [Compound No. 60, (S)-N-[[3-[3-Fluoro-4-[N-1-[4-(2-furyl-(5-aldoxime)methyl}]piperazinyl]phenyl]-2-oxo-5-oxazolidinyl]methyl]acetamide], for which the MIC stood at 8 µg/mL (≈ 17.4 µM) against S. pneum 6303; 4 µg/mL (≈ 8.71 µM) against S. pyogenes 19615; 2 µg/mL (≈ 4.35 µM) in the assay on MRSA 33; 8 µg/mL (≈ 17.4 µM) against E. faecalis 29212; 16 µg/mL (≈ 34.8 µM) in the assay on VRE 6A; 2 µg/mL (≈ 4.35 µM) against MRSA 15187. Besides, the figures for the MIC against S. aureus 25923 and in the assay with S. pneum AB 34 were 2 µg/mL (≈ 4.35 µM) and 8 µg/mL (≈ 17.4 µM), respectively.

With `COC(=O)Cc1ccc(NC(=O)ON=Cc2ccc(CN3CCN(c4ccc(N5C[C@H](CNC(C)=O)OC5=O)cc4F)CC3)o2)cc1` [Compound No. 61], the MIC against S. pneum 6303, in the assay with S. pyogenes 19615, in the assay on MRSA 33, with E. faecalis 29212, against VRE 6A and in the assay with MRSA 15187 was 8 µg/mL (≈ 12.3 µM) each time. Also, the MIC in the assay on S. aureus 25923 and in the assay with S. pneum AB 34 was 8 µg/mL (≈ 12.3 µM) throughout.

Regarding `CC(=O)NC[C@H]1CN(c2ccc(N3CC4C(C3)C4N(C)Cc3ccc(C=O)o3)c(F)c2)C(=O)O1` (stereo partly drawn) [Compound No. 72, (S)-N-[[3-[3-Fluoro[4-[3-(1α,5α,6α)-6-[N-(5-formyl-2-furylmethyl)-N-methyl]amino]-3-azabicyclo-[3.1.0]hexane]phenyl]-2-oxo-5-oxazolidinyl]methyl]acetamide], the MIC against S. pneum 6303 turned out to be 4 µg/mL (≈ 8.5 µM); in the assay on S. pyogenes 19615, 0.25 µg/mL (≈ 0.531 µM); in the assay on MRSA 33 it was 4 µg/mL (≈ 8.5 µM); against E. faecalis 29212, 8 µg/mL (≈ 17 µM); against VRE 6A, 8 µg/mL (≈ 17 µM); with MRSA 15187 it was 4 µg/mL (≈ 8.5 µM). Besides, the MIC against S. aureus 25923 turned out to be 8 µg/mL (≈ 17 µM); with S. pneum AB 34 it was 4 µg/mL (≈ 8.5 µM).

As to `CC(=O)NC[C@H]1CN(c2ccc(N3CC4C(C3)C4N(C)C(=O)c3ccsc3)c(F)c2)C(=O)O1` (stereo partly drawn) [Compound No. 73, (S)-N-[[3-[3-Fluoro[4-[3-(1α,5α,6α)-6-[N-(3-thienoyl)-N-methyl]amino]-3-azabicyclo-[3.1.0]hexane]phenyl]-2-oxo-5-oxazolidinyl]methyl]acetamide], the MIC in the assay on S. pneum 6303 is 4 µg/mL (≈ 8.46 µM); against S. pyogenes 19615, 1 µg/mL (≈ 2.12 µM); in the assay on MRSA 33 it was 8 µg/mL (≈ 16.9 µM); against E. faecalis 29212, 8 µg/mL (≈ 16.9 µM); against VRE 6A, 8 µg/mL (≈ 16.9 µM); against MRSA 15187 it was 8 µg/mL (≈ 16.9 µM). In addition, the MIC in the assay with S. aureus 25923 and against S. pneum AB 34 was 8 µg/mL (≈ 16.9 µM) in each case.
